According to patent EP3498266A1, “FORMULATIONS OF COPANLISIB” (priority 2017, dated 2019):
Read-outs that look alike come from different tables or passages of the source.

Assays:
[1] = tested on: indolent B-cell non-Hodgkin lymphoma
Protocol: Methods: Patients with indolent B-cell non-Hodgkin lymphoma (4 subtypes: follicular (FL), marginal zone (MZL), small lymphocytic (SLL) and lymphoplasmacytoid/Waldenström macroglobulinemia (LPL-WM)) and relapsed after, or refractory to, ≥2 prior lines of treatment were eligible. […] Copanlisib (60 mg, I.V.) was intermittently administered on days 1, 8 and 15 of a 28-day cycle.

[2] = Hydrolytic (chemical) stability in aqueous solution, HPLC; type: physicochemical
Protocol: The different aqueous solutions (0.05 % copanlisib; after addition of 50 % 2-propanol, [buffer solution filtered with 0.5µm membrane filter]) were stored at 25°C and 70°C for 24 h and one week. An analytical HPLC-method has been developed to determine assay and organic impurities of copanlisib as well as degradation products. Table 2 : Results on hydrolytic stability of copanlisib

[3] = Solubility of copanlisib dihydrochloride, flask method, HPLC; type: physicochemical; settings: for Descriptive term: according to Ph. Eur./USP; for solubility at 19 h: 25 °C, thermodynamic from solid
Description: The suspension was centrifuged before HPLC analysis.

[4] = full analysis set, 142 patients

For COc1c(OCCCN2CCOCC2)ccc2c1N=C(NC(=O)c1cnc(N)nc1)N1CCN=C21 [copanlisib, 2-amino-N-[7-methoxy-8-(3-morpholin-4-ylpropoxy)-2,3-dihydroimidazo[1,2-c]quinazolin-5-yl]pyrimidine-5-carboxamide], the CR ([1]; FL subset) was 14.4%, the ORR ([1]; FL subset) was 58.7% and the PR ([1]; FL subset) was 44.2%. For the same compound, the “estimated Kaplan-Meier (KM) median duration of response” value ([1]; FL subset (range 0-687)) was 370 days, the CR ([1]; MZL subset) was 8.7% and the ORR ([1]; MZL subset) was 69.6%. For the same compound, the PR ([1]; MZL subset) was 60.9%, the “AEs of interest: colitis” value ([1]; all grade) was 0.7% and the “AEs of interest: diarrhea” value ([1]; all grade) was 18%. For the same compound, the “AEs of interest: lung infection” value ([1]; all grade) was 14%, the “AEs of interest: neutropenia” value ([1]; all grade) was 25% and the “AEs of interest: pneumonitis” value ([1]; all grade) was 7%. For the same compound, the “treatment-related adverse events: hypertension” value ([1]; all grade) was 29%, the “treatment-related adverse events: transient hyperglycemia” value ([1]; all grade, 60 mg I.V. days 1, 8, 15 of 28-day cycle) was 49% and the “Laboratory toxicities: alanine aminotransferase” value ([1]; all-grade) was 23%. For the same compound, the “Laboratory toxicities: aspartate aminotransferase” value ([1]; all-grade) was 28%, the Median overall survival ([1]; at the time of primary analysis) was “had not yet been reached” and the “complete response (CR)” value ([1]; full analysis set) was 12.0%. The “estimated Kaplan-Meier (KM) median duration of response” value ([1]; full analysis set (range 0-687)) was 687 days, the colonic perforations [1, 4] was “No colonic perforations occurred” and the deaths [1, 4] was 6. The non-fatal opportunistic infections [1, 4] was “two”, the “AEs of interest: colitis” value ([1]; human, in vivo) was 0.7% and the “AEs of interest: diarrhea” value ([1]; human, in vivo) was 4%. For the same compound, the “AEs of interest: lung infection” value ([1]; human, in vivo) was 11%, the “AEs of interest: neutropenia” value ([1]; human, in vivo) was 19% and the “AEs of interest: pneumonitis” value ([1]; human, in vivo) was 1.4%. For the same compound, the “Laboratory toxicities: alanine aminotransferase” value ([1]; human, in vivo) was 19%, the “Laboratory toxicities: aspartate aminotransferase” value ([1]; human, in vivo) was 25% and the “treatment-related adverse events: hypertension” value ([1]; human, in vivo) was 23%. The “treatment-related adverse events: transient hyperglycemia” value ([1]; human, in vivo) was 40%, the “deaths attributed to copanlisib” value ([1]; lung infection, respiratory failure, and a thromboembolic event) was 3 and the “KM-estimate of median PFS” value ([1]; range 0-736) was 340 days. The Appearance ([2]; 0.1M HCl, 1 week, 25°C) was “slightly colored solution”, the Appearance ([2]; 0.1M HCl, 1 week, 70°C) was “slightly colored solution” and the Appearance ([2]; 0.1M HCl, 24 h, 25°C) was “slightly colored solution”. For the same compound, the Appearance ([2]; 0.1M HCl, 24h, 70°C) was “slightly colored solution”, the Appearance ([2]; 0.1M HCl, Initial) was “slightly colored solution” and the Appearance ([2]; 0.1 M NaOH, 1week, 25°C) was “slightly colored solution”. The Appearance ([2]; 0.1 M NaOH, 1week, 70°C) was “slightly colored solution”, the Appearance ([2]; 0.1 M NaOH, 24 h, 25°C) was “slightly colored solution” and the Appearance ([2]; 0.1 M NaOH, 24h, 70°C) was “slightly colored solution”. For the same compound, the Appearance ([2]; 0.1 M NaOH, Initial) was “slightly colored solution”, the Appearance ([2]; Buffer pH 7, 1 week, 25°C) was “slightly colored turbid solution” and the Appearance ([2]; Buffer pH 7, 1 week, 70°C) was “slightly colored solution”. The Appearance ([2]; Buffer pH 7, 24 h, 25°C) was “slightly colored turbid solution”, the Appearance ([2]; Buffer pH 7, 24 h, 70°C) was “slightly colored solution” and the Appearance ([2]; Buffer pH 7, Initial) was “slightly colored turbid solution”. For the same compound, the Appearance ([2]; Water, 1 week, 25°C) was “slightly colored solution”, the Appearance ([2]; Water, 1 week, 70°C) was “slightly colored solution” and the Appearance ([2]; Water, 24 h, 25°C) was “slightly colored solution”. For the same compound, the Appearance ([2]; Water, 24h, 70°C) was “slightly colored solution” and the Appearance ([2]; Water, Initial) was “slightly colored solution”.
For COc1c(OCCCN2CCOCC2)ccc2c1N=C(NC(=O)c1cnc(N)nc1)N1CCN=C21.Cl.Cl [copanlisib dihydrochloride, 2-amino-N-[7-methoxy-8-(3-morpholin-4-ylpropoxy)-2,3-dihydroimidazo[1,2-c]quinazolin-5-yl]pyrimidine-5-carboxamide dihydrochloride], the Descriptive term ([3]; 0.1 M Hydrochloric acid) was “freely soluble”, the solubility at 19 h ([3]; 0.1 M hydrochloric acid, simulated gastric fluid) was 190 mg/mL and the solubility at 19 h ([3]; aqueous buffer, Buffer (citrate) pH 3) was 250 mg/mL. For the same compound, the solubility at 19 h ([3]; aqueous buffer, Buffer (citrate) pH 4) was 25 mg/mL, the solubility at 19 h ([3]; aqueous buffer, Buffer (citrate) pH 5) was 0.62 mg/mL and the solubility at 19 h ([3]; aqueous buffer, Buffer (phosphate) pH 1) was 510 mg/mL. For the same compound, the solubility at 19 h ([3]; aqueous buffer, Buffer (phosphate) pH 2) was 250 mg/mL, the solubility at 19 h ([3]; aqueous buffer, Buffer (phosphate) pH 6) was 0.001 mg/mL and the Descriptive term ([3]; Buffer (citrate) pH 3) was “freely soluble”. For the same compound, the Descriptive term ([3]; Buffer (citrate) pH 4) was “soluble”, the Descriptive term ([3]; Buffer (citrate) pH 5) was “very slightly soluble” and the Descriptive term ([3]; Buffer (phosphate) pH 1) was “freely soluble”. For the same compound, the Descriptive term ([3]; Buffer (phosphate) pH 2) was “freely soluble”, the Descriptive term ([3]; Buffer (phosphate) pH 6) was “practically insoluble” and the Descriptive term ([3]; Buffer (phosphate) pH 7) was “practically insoluble”. For the same compound, the Descriptive term ([3]; Water) was “freely soluble” and the solubility at 19 h ([3]; water) was 230 mg/mL.
